PMC10436260, “Thiazolide Prodrug Esters and Derived Peptides: Synthesis and Activity” (ACS Bio & Med Chem Au, 2023)
pIC50: −log10 of the molar value. Values after ≈ are worked out from the molar mass of the structure shown. “Also recorded” adds a separate entry of the source. Like-named read-outs stand apart in the source and are kept apart here.

Key:
[1] = physchem; type: physicochemical
Description: Table 1 Summarized DMPK and Antiviral Data for Thiazolides and Derived Peptides | column: log P

[2] = clearance in rat hepatocytes (RH); type: in vitro ADME
Description: Table 1 Summarized DMPK and Antiviral Data for Thiazolides and Derived Peptides | column: clearance RH μL/min/10^6 cells

[3] = in vitro; type: in vitro ADME; details: human, microsomes
Description: Table 1 Summarized DMPK and Antiviral Data for Thiazolides and Derived Peptides | column: clearance HLM μL/min/mg

[4] = test system: influenza A virus (IAV) strain A/PuertoRico/8/1934(H1N1) (PR8); experiment: microbe, parasite or virus in culture; type: cell-based
[5] = cell viability by MTT assay in mock-infected cells; type: cell-based, canine; details: dog; mock-infected MDCK cells, MTT, 24 h; read-out: CC50 (50% cytotoxic concentration)
Experimental: (§1) Madin–Darby canine kidney (MDCK) cells (American Type Culture Collection, ATCC) were grown at 37 °C in a 5% CO2 atmosphere in an RPMI-1640 medium (LONZA-CAMBREX, Basel, Switzerland), supplemented with 10% fetal calf serum (FCS), 2 mM glutamine, and antibiotics. Tizoxanide (Romark Laboratories, L.C.) and derived peptides, dissolved in a dimethyl sulfoxide (DMSO) stock solution, were diluted in culture medium, added to infected cells after a one-hour virus adsorption period, and maintained in the medium for the duration of the experiment.
(§2) Cell viability was determined by the 3-(4,5-dimethylthiazol-2-yl)-2,5-diphenyltetrazolium bromide (MTT) to MTT formazan conversion assay (Sigma-Aldrich), as described.[28],[29] The 50% cytotoxic dose (CC50) was calculated using Prism 5.0 software (Graph-Pad Software Inc.).[28]
(§3) Confluent cell monolayers were mock-infected or infected with PR8 virus for 1 h at 37 °C at a multiplicity of infection (MOI) of 5 HAU (hemagglutinating units)/10^5 cells, as described.[30],[31] After the adsorption period, the viral inoculum was removed and cells were treated with different concentrations (0.1, 1, 5, 10, and 50 μg/mL) of each compound or vehicle and maintained at 37 °C in an RPMI-1640 medium containing 2% FCS for 24 h; in parallel, cell viability was determined in mock-infected cells by the MTT assay, as described above. Virus yield was determined 24 h post infection (p.i.) by HA titration, as described.[31] Compounds’ IC50 (50% inhibitory concentration) and IC90 (90% inhibitory concentration) were calculated using Prism 5.0 software.

[6] = physchem; details: pH 7.4
[7] = type: physicochemical; details: for stability of solutions: pH 5
Description: We studied the aqueous stability further by NMR, Figures 1 and 2. […] In the case of valacyclovir, which we originally used as a model for 5a and 6, it was known that some hydrolysis occurred in vivo.[17] Clearly, at the 18 day time point [Figure 2g], the rearrangement and hydrolysis products accounted for ∼50% of the total analyte. In Figure 3, the aryl region is integrated and compared with the spectra of 5a, 3, and 8 (see below).
Figure 2 Time-course ^1H NMR spectra of the aromatic region of 5a in d6-DMSO + 10%D2O. Evolution with time over an 18 day period at 298–313 K. The sample was held in an isothermal bath at a specified temperature between measurements. Spectra were recorded at the temperature stated in each case. (a) t = zero, 298 K; (b) t = 1 week, 308 K; (c) t = 8 days, 308 K; (d) t = 9 days, 308 K; (e) t = 11 days, 313 K; (f) t = 14 days, 313 K; (g) t = 18 days, 313 K.
Figure 3 Assignment and integration of the final time-point spectrum.

[8] = rat, in vivo, po; cited from earlier work
[9] = test system: Madin–Darby canine kidney (MDCK) cells; experiment: cell viability by MTT assay in mock-infected cells; type: cell-based; details: antiviral assay conditions, MDCK cells
Experimental: as §1, §2, §3

[10] = CC50 (MDCK) / IC50 (influenza A)
[11] = Influenza A virus, MDCK, 24 h; read-out: IC50 (50% inhibitory concentration)
[12] = Influenza A virus, MDCK, 24 h; read-out: IC90 (90% inhibitory concentration)

SMILES	logP [1]	hepatocyte CLint [2] [µL/min/1e6 cells]	microsomal CLint [3] [µL/min/mg]	SI, selectivity index, CC50/IC50 [4, 10]	pIC50 [4, 11]	IC90 [4, 12] [µM]	antiviral activity in words ([4]; influenza A virus assay)	CC50 at 24 h [5] [µM]	solubility [6] [µM]	other results
CC(C)(C)[C@H](NC(=O)c1ccccc1O)C(=O)Nc1ncc([N+](=O)[O-])s1 [compound 8, (S)-N-(3,3-Dimethyl-1-((5-nitrothiazol-2-yl)amino)-1-oxobutan-2-yl)-2-hydroxybenzamide]	3.3	31.5	36.5	>83	5.80	79	retains good activity	> 132	18 (≈ 6.81 µg/mL)	–
CC(C)(C)[C@H](N)C(=O)Oc1ccccc1C(=O)Nc1ncc([N+](=O)[O-])s1.Cc1ccc(S(=O)(=O)O)cc1 [5b, (S)-3,3-Dimethyl-1-(2-((5-nitrothiazol-2-yl)carbamoyl)phenoxy)-1-oxobutan-2-aminium 4-methylbenzenesulfonate]	–	–	–	–	–	–	–	–	–	stability of solutions [7]: unstable
CC(C)(C)[C@H](N)C(=O)Oc1ccccc1C(=O)Nc1ncc([N+](=O)[O-])s1 [5a]	–	–	–	–	–	–	activity is equivalent to 3	–	–	stability on storage [7]: stable for months; rearrangement and hydrolysis products as share of total analyte / loss of 5a ([7]; d6-DMSO + 10% D2O, 298–313 K, 18 day time point, 1H NMR integration): ~50%; absolute bioavailability [8]: 20–25%
CC(C)(C)[C@H](N)C(=O)Oc1ccccc1C(=O)Nc1ncc(Cl)s1 [compound 6]	–	–	–	–	–	–	–	–	–	stability on storage [7]: stable for months; absolute bioavailability [8]: 20–25%
CC(C)(C)[C@H](N)C(=O)Oc1ccccc1C(=O)Nc1ncc([N+](=O)[O-])s1.CS(=O)(=O)O [5c, (S)-3,3-Dimethyl-1-(2-((5-nitrothiazol-2-yl)carbamoyl)phenoxy)-1-oxobutan-2-aminium Methanesulfonate]	–	–	–	–	–	–	–	–	–	stability of solutions [7]: unstable
CC(C)[C@H](NC(=O)c1ccccc1O)C(=O)Nc1ncc([N+](=O)[O-])s1 [compound 21, (S)-2-Hydroxy-N-(3-methyl-1-((5-nitrothiazol-2-yl)amino)-1-oxobutan-2-yl)benzamide]	2.9	67.7	55.9	>10	4.86	> 137	considerably less active	> 137	> 1000	–
CC(C)[C@H](NC(=O)c1ccccc1O)C(=O)Nc1ncc(Cl)s1 [compound 22, (S)-2-Hydroxy-N-(3-methyl-1-((5-chlorothiazol-2-yl)amino)-1-oxobutan-2-yl)benzamide]	–	234	42.7	–	< 4.37	> 42.4	essentially inactive; also recorded: virtually inactive	42.4	82 (≈ 29 µg/mL)	toxicity under the assay conditions in words [9]: appeared toxic
CC(C)(C)[C@H](NC(=O)c1ccccc1O)C(=O)Nc1ncc(Cl)s1 [compound 20, (S)-N-(3,3-Dimethyl-1-((5-chlorothiazol-2-yl)amino)-1-oxobutan-2-yl)-2-hydroxybenzamide]	> 3.5	75.4	42.4	–	< 4.39	> 40.8	essentially inactive; also recorded: virtually inactive	40.8	388 (≈ 143 µg/mL)	toxicity under the assay conditions in words [9]: appeared toxic
O=C(Nc1ncc(Cl)s1)c1ccccc1O [compound 4, reference compound]	2.9	> 300	37.5	–	–	–	–	> 196	48 (≈ 12.2 µg/mL)	SI, selectivity index, CC50/IC50 [4]: >50; pIC50 ([4]; Influenza A virus, MDCK, 24 h, read-out: IC50 (50% inhibitory concentration)): 5.41; IC90 ([4]; Influenza A virus, MDCK, 24 h, read-out: IC90 (90% inhibitory concentration)): 19.6 µM
O=C(Nc1ncc([N+](=O)[O-])s1)c1ccccc1O [compound 3, Tizoxanide, reference compound]	1.8	244	50.2	>82	5.64	26.4	–	> 189	33 (≈ 8.75 µg/mL)	–
